Measured values from ChEMBL document CHEMBL1150892, “Kalkipyrone, a toxic gamma-pyrone from an assemblage of the marine cyanobacteria Lyngbya majuscula and Tolypothrix sp” (J Nat Prod, 1998).
≈ marks a conversion by molar mass, not a printed value.

Key:
[1] = Toxicity in Artemia salina; format: organism-based; details: in vivo, read-out: LD50 (the source's name)
[2] = Ichthyotoxicity in gold fish after 1 hr; format: organism-based; details: carassius auratus, in vivo; read-out: LD50

SMILES: COc1oc(C/C=C(\C)C/C=C/C(C)=C/[C@@H](C)O)c(C)c(=O)c1C [KALKIPYRONE]
- LC50 [1]: 1 µg/mL (≈ 3.01 µM)
- LC50 at 1 h [2]: 2 µg/mL (≈ 6.02 µM)
